Data on 1 compound can be found in patent publication US10220040B2, “Compounds, compositions and methods useful for cholesterol mobilization” (Cerenis Therapeutics Holding SA, priority 2010, dated 2019).

Each structure is given as a SMILES string.

For one assay, the system named is C57Bl6 mice. As to the kind of experiment: Dose response on bile physiology after single oral gavage in mice. It is filed as in vivo. As to the method: FIG. 16A-J: Increase of bile secretion following activation of P2Y13r pathway in mice. C57Bl/6J mice (n=10) were fasted for 2 h and then intravenously injected with Cangrelor® or Compound IIa (10 nmoles/kg). Four hours later the gallbladders were removed and analyzed for: Bile acids content (FIG. 16A); Bile cholesterol content (FIG. 16B). C57Bl/6J mice (n=10) were fasted for 2 h followed by single oral dose of P2Y13r agonist Compound IIa at 3, 30 or 300 μg/kg. Six hours later bile acids contents (FIG. 16C); bile cholesterol content (FIG. 16D), and bile acid content of liver (FIG. 16E) were evaluated using HPLC and enzymatic kits for gallbladers. Plasma samples were collected at time 0 and after 6 h of treatment, then analyzed for: total cholesterol (▴), unesterified cholesterol (●), esterified cholesterol (▪) and HDL cholesterol (▾) determined using either enzymatic kits or Lipoprint® for HDL cholesterol (FIG. 16F). C57Bl/6J mice (n=5) were intravenously injected with [^3H]-cholesterol-labelled mouse HDL (FIG. 16G), [^3H]-cholesteryl oleate-labelled mouse HDL (FIG. 16H) or [^3H]-cholesterol-labelled mouse LDL (FIG. 16I), and with Cangrelor® or Compound IIa (10 nmoles/kg). Radioactivity present in the liver was determined 2 hours later for the HDL or 5 hours later for the LDL. Cholesterol content of feces from treated animals (100 μg/kg) was determined by Charge aerosol detection (FIG. 16J). *p<0.05, **p<0.01.
The dose response after oral gavage was determined for illustrative compounds of the invention. The chosen doses were 0.003, 0.03 and 0.3 mg/kg. The selected compounds of the invention were administrated by oral gavage and 6 hours later the mice are sacrificed and the bile content was analyzed (FIGS. 6-11).
Bile acids were diluted in PBS (1:5000) and the concentration was measured according to the manufacturer protocol with slight modifications. Concentrations of bile acids in the standard curve were varied from […] and the enzymatic reaction was performed for 20 minutes. 4 μl of 1:5000 bile dilution was used for concentration determination.
Bile phospholipids were measured according to the manufacturer protocol. Briefly, the standards were varied from 0 to 20 μg/ml and 4 μl of bile was measured in the assay. The reaction was performed for 5 minutes at 37° C.
Bile phospholipids were measured according to the manufacturer protocol. Briefly, the standards were varied from 0 to 60 μg/ml and 10 μl of bile (dilution 1:10) was measured in the assay. The reaction was performed for 5 minutes at 37° C.

A further assay has as its system apoE −/− mice. As to the kind of experiment: ApoE−/− mice flow cessation model (ligated carotid, Western diet). It is filed as in vivo. An excerpt:
FIG. 17A-J: Dose-response effect of P2Y13 agonist on atherosclerotic plaque progression in ApoE^−/− mice. ApoE^−/− mice (n=7) were ligated on the upper part of the left carotids. On the day of the surgery the animals were placed on a Western diet and given an oral gavage of vehicle or increasing doses of Compound IIa. Ligated carotids were lipid extracted in 2:1 chloroform/methanol. FIG. 17A: the concentrations in unesterified cholesterol (dark bars) and total cholesterol (superimposed gray bars) were measured by HPLC. FIG. 17E and FIG. 17H: hematoxylin eosin staining of longitudinal sections of ApoE^−/− mice carotids. FIG. 17F and FIG. 17I: Oil Red O staining of longitudinal sections of ApoE^−/− mice carotids. FIG. 17G and FIG. 17J: CD-68 antibody staining of longitudinal sections of ApoE^−/− mice carotids. FIG. 17B: quantification of the intima/media ratio (n=10). FIG. 17C: Oil Red O positive staining quantification (n=10). FIG. 17D: CD68 antibody staining quantification (n=10). The mice were dosed for 2 weeks with vehicle (FIG. 17E, FIG. 17F and FIG. 17G) or Compound IIa at 100 μg/kg (FIG. 17H, FIG. 17I and FIG. 17J).
ApoE^−/− mice “flow cessation model”: Left carotid of apoE^−/− mice were ligatured and placed on Western diet. These mice were given Compound IIa once a day at 100 μg/kg (0.5% CMC, 0.2% Tween80) for 2 weeks.
The left carotid fixed in formalin was embedded in OCT and frozen at −20° C. Four step frozen sections of 50 μm separated one from the other were processed and stained with Oil red O (ORO). Macrophages were detected using primary rat monoclonal anti CD-68 antibody (Abcam).
The effect of the stimulation of the P2Y13r pathway by the agonists on the atherosclerotic plaque lesions in apoE −/− mice that are very susceptible to develop atherosclerosis on a short term Western (i.e. high-cholesterol) diet was investigated. […] The quantification of plaque components by histo-pathological analysis of the treated carotids with hematoxylin-eosin (FIG. 17B, E, H), oil-red O staining (FIG. 17C, F, I) and with CD68 antibody (specific of the macrophages), (FIG. 17D, G, J) further confirmed this observation.

Consider `CN(C)c1ncc(CN2CCC(c3cc(O)nc(N4CCOCC4)n3)CC2)cn1` [Compound IIa, 6-[1-(2-Dimethylaminopyrimidin-5-ylmethyl)-piperidin-4-yl]-2-morpholin-4-yl-pyrimidin-4-ol], for which the “plasma cholesterol and HDL” value in the assay with C57Bl6 mice (after 4 h of treatment, exception: unesterified cholesterol) was “not significantly affected”. Moreover, the “dose at which an effect on bile acids, bile cholesterol and bile phospholipids was shown” value in the assay with C57Bl6 mice (oral gavage 0.003, 0.03 and 0.3 mg/kg, bile analyzed 6 hours later) worked out at 3 µg/kg. For the same compound, the “bile acid and cholesterol secretion in the bile” value in the assay on C57Bl6 mice (oral gavage, doses as low as 30 μg/kg) is on record as “stimulation”. In addition, the “liver bile acid content” value with C57Bl6 mice (oral, 30 μg/kg) was “increase”. Moreover, the “cholesterol deposit in non-inflammatory right carotids” value with apoE −/− mice (100 μg/kg, vehicle 18.2+/−3.6) is on record as 7.5+/−3.4 nmole/mg of tissue. In the assay on apoE −/− mice (oral dosing for 2 weeks along with high-cholesterol diet, ligated carotid), the “progression of the atherosclerosis lesions (lesion cholesterol content) compared to control animals” value is recorded as “dose-dependent inhibition”. The “inhibition of the atherosclerosis progression in mice” value in the assay on apoE −/− mice (summary statement) is on record as “dramatic effect”. For the same compound, the “lipid content of the carotids (staining)” value in the assay on apoE −/− mice (treated animals, 2 weeks) was “decrease”.
